Reference: US20240158446A1, “CYCLIC COMPOUND HAVING SELECTIVE INHIBITORY ACTION ON KRAS OVER HRAS AND NRAS” (CHUGAI SEIYAKU KABUSHIKI KAISHA, priority 2021, published 2024)
Where two headings read alike, the source gives them in different places. Where a SMILES comes first, the peptide text is derived from it. Bridges are numbered along the chain shown (N, C = ends). [ ]: non-standard residue; d: D form. hPhe(3,5-F2-4-CF3) = N[C@@H](CCc1cc(F)c(C(F)(F)F)c(F)c1)C(=O)O; NPrPhe(4-CF3) = CCCN[C@@H](Cc1ccc(C(F)(F)F)cc1)C(=O)O; NMeGly(cPent) = CN[C@H](C(=O)O)C1CCCC1; αMeF = C[C@](N)(Cc1ccccc1)C(=O)O; NMeD = CN[C@@H](CC(=O)O)C(=O)O; NMeL = CN[C@@H](CC(C)C)C(=O)O; Sar = CNCC(=O)O

How the values were obtained:
[1] = biological target: GDP-bound KRAS wild-type protein (Homo sapiens, UniProt P01116); assay: Binding to KRAS by surface plasmon resonance (SPR), Single Cycle Kinetics; conditions: GDP-bound KRAS wild-type protein, read-out: KRAS KD
Sequence of GDP-bound KRAS wild-type protein (P01116 whole entry): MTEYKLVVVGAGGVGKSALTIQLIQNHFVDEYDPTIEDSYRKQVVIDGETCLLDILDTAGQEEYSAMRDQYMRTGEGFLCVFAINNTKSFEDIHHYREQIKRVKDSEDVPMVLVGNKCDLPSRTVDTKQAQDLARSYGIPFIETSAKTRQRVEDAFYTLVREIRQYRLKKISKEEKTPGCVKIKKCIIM

[2] = biological target: GDP-bound NRAS wild-type protein (Homo sapiens, UniProt P01111); assay: Binding to NRAS by surface plasmon resonance (SPR), Single Cycle Kinetics
Sequence of GDP-bound NRAS wild-type protein (P01111 whole entry): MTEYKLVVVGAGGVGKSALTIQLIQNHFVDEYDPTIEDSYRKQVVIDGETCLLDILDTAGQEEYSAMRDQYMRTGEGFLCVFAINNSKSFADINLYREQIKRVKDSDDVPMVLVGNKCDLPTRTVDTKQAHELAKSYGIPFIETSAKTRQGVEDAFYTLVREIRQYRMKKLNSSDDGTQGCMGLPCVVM

[3] = biological target: GDP-bound HRAS wild-type protein (Homo sapiens, UniProt P01112); assay: Binding to HRAS by surface plasmon resonance (SPR), Single Cycle Kinetics
Sequence of GDP-bound HRAS wild-type protein (P01112 whole entry): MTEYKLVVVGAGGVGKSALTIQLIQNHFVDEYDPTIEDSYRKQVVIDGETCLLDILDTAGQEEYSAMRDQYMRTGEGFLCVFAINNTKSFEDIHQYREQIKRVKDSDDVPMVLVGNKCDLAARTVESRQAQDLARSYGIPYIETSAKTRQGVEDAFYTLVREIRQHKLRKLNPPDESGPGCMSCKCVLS

[4] = SPR, GDP-bound NRAS wild-type protein vs GDP-bound KRAS wild-type protein
[5] = SPR, GDP-bound HRAS wild-type protein vs GDP-bound KRAS wild-type protein
[6] = SPR Single Cycle Kinetics, 1:1 binding model

SMILES: CCC[C@H]1C(=O)N[C@@H]([C@@H](C)CC)C(=O)N(C2CC2)CC(=O)N(C)[C@H]2C/C=C\CCN(C2=O)[C@@H](Cc2ccc(C(F)(F)F)cc2)C(=O)N(C)CC(=O)N[C@@H](CCc2cc(F)c(C(F)(F)F)c(F)c2)C(=O)N2C[C@H](OCC)C[C@H]2C(=O)NC2(CC(C)(C)C2)C(=O)N(C)[C@@H](C2CCCC2)C(=O)N(C)[C@H](C(=O)N(C)C)CC(=O)N1C [PP2101]
- Kd ([1]; SPR, Single Cycle Kinetics): 0.32 nM
- NRAS/KRAS (ratio of KD value for NRAS to KD value for KRAS) [2, 4]: A (a compound having 10 or more and less than 20 is denoted as A)
- HRAS/KRAS (ratio of KD value for HRAS to KD value for KRAS) [3, 5]: B (a compound having 3 or more and less than 10 is denoted as B)

SMILES: CCO[C@@H]1C[C@H]2C(=O)NC3(CC(C)(C)C3)C(=O)N(C)[C@@H](C3CCCC3)C(=O)N(C)[C@H](C(C)C)CC(=O)N(C)[C@@H](CC)C(=O)N[C@@H]([C@@H](C)CC)C(=O)N(C)CC(=O)N(C)[C@H]3C/C=C\CCN(C3=O)[C@@H](CC3CCCCC3)C(=O)N(C)CC(=O)N[C@@H](CCc3cc(F)c(C(F)(F)F)c(F)c3)C(=O)N2C1 [PP1603]
- Kd ([1]; SPR, Single Cycle Kinetics, 1:1 binding model): 5.3 nM
- NRAS/KRAS (ratio of KD value for NRAS to KD value for KRAS) ([2]; SPR, GDP-bound NRAS wild-type protein vs GDP-bound KRAS wild-type protein, KD ratio class): B (a compound having 3 or more and less than 10 is denoted as B)
- HRAS/KRAS (ratio of KD value for HRAS to KD value for KRAS) ([3]; SPR, GDP-bound HRAS wild-type protein vs GDP-bound KRAS wild-type protein, KD ratio class): B (a compound having 3 or more and less than 10 is denoted as B)

SMILES: CCO[C@@H]1C[C@H]2C(=O)NC3(CC(C)(C)C3)C(=O)N(C)[C@@H](C3CCCC3)C(=O)N(C)[C@H](C(=O)N(C)CC)CC(=O)N(C)[C@@H](CC(C)C)C(=O)N[C@@H]([C@@H](C)CC)C(=O)N(C)CC(=O)N(C)[C@H]3C/C=C\CCN(C3=O)[C@@H](Cc3ccc(C(F)F)cc3)C(=O)N(C)CC(=O)N[C@@H](CCc3ccc(C(F)(F)F)c(Cl)c3)C(=O)N2C1 [PP2829]
- Kd [1, 6]: 0.095 nM
- NRAS/KRAS (ratio of KD value with respect to GDP-bound NRAS wild-type protein to KD value with respect to KRAS) ([2]; SPR KD ratio NRAS/KRAS, class symbols): A (a compound having 10 or more and less than 20 is denoted as A)
- HRAS/KRAS (ratio of KD value with respect to GDP-bound HRAS wild-type protein to KD value with respect to KRAS) ([3]; SPR KD ratio HRAS/KRAS, class symbols): A (a compound having 10 or more and less than 20 is denoted as A)

SMILES: CCCN1C(=O)CN(C)C(=O)CN(C)C(=O)[C@H]([C@@H](C)CC)NC(=O)[C@H](CC(C)C)N(C)C(=O)C[C@@H](C(=O)N(C)C)N(C)C(=O)[C@H](C2CCCC2)N(C)C(=O)[C@](C)(Cc2ccccc2)NC(=O)[C@@H]2CCCN2C(=O)[C@H](CCc2cc(F)c(C(F)(F)F)c(F)c2)NC(=O)CN(C)C(=O)[C@@H]1Cc1ccc(C(F)(F)F)cc1 [PP0740] ([NMeL]I[Sar][Sar][NPrPhe(4-CF3)][Sar][hPhe(3,5-F2-4-CF3)]P[αMeF][NMeGly(cPent)][NMeD]-NMe2; lactam N-11)
- Kd [1, 6]: 0.47 nM
- NRAS/KRAS (ratio of KD value with respect to NRAS to KD value with respect to KRAS) [2, 4]: B (a compound having 3 or more and less than 10 is denoted as B)
- HRAS/KRAS (ratio of KD value with respect to HRAS to KD value with respect to KRAS) [3, 5]: C (A compound having a KD ratio of 0.1 or more and less than 3 is denoted as C)

SMILES: CCO[C@@H]1C[C@H]2C(=O)NC3(CC(C)(C)C3)C(=O)N(C)[C@@H](C3CCCC3)C(=O)N(C)[C@H](C(=O)N(C)CC)CC(=O)N(C)[C@@H](C3CC3)C(=O)N[C@@H]([C@@H](C)CC)C(=O)N(C)CC(=O)N(C)[C@H]3C/C=C\CCN(C3=O)[C@@H](Cc3ccc(C(F)(F)F)cc3)C(=O)N(C)CC(=O)N[C@@H](CCc3cc(F)c(C(F)(F)F)c(F)c3)C(=O)N2C1 [PP2036]
- Kd ([1]; SPR, Single Cycle Kinetics): 0.089 nM
- NRAS/KRAS (ratio of KD value for NRAS to KD value for KRAS) [2, 4]: A (a compound having 10 or more and less than 20 is denoted as A)
- HRAS/KRAS (ratio of KD value for HRAS to KD value for KRAS) [3, 5]: A (a compound having 10 or more and less than 20 is denoted as A)
